In patent EP1077966B1, “BIPHENYL SULFONYL ARYL CARBOXYLIC ACIDS USEFUL IN THE TREATMENT OF INSULIN RESISTANCE AND HYPERGLYCEMIA” (Wyeth, priority 1998, dated 1999):
Marks after values point to notes of the source that are not given here.

How the values were obtained:
[1] = molecular target: T1, Human recombinant PTP1B (Homo sapiens, UniProt P18031); test: Inhibition of tri-phosphorylated insulin receptor dodecaphosphopeptide dephosphorylation by hPTP1B (malachite green-ammonium molybdate phosphate detection); type: biochemical; conditions: substrate phosphotyrosyl dodecapeptide […] (insulin receptor 1142-1153), 37°C, 30 min, pH 7.4
T1 construct: made in house
T1 sequence (P18031 1-435): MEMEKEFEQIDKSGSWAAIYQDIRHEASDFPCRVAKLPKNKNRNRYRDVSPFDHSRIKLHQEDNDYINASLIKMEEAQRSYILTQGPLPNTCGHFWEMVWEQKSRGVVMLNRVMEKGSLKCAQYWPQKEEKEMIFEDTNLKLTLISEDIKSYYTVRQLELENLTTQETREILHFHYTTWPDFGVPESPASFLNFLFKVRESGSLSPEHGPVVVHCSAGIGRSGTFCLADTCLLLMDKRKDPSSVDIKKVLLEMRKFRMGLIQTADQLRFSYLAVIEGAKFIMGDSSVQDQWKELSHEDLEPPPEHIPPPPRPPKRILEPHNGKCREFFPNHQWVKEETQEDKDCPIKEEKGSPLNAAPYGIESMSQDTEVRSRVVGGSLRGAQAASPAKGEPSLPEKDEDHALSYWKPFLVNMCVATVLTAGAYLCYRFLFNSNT

[2] = system: diabetic (ob/ob) mice; test: Blood glucose lowering activity in diabetic (ob/ob) mice; type: in vivo; conditions: Dose 25 mg/Kg, plasma glucose relative to vehicle treated mice, statistically (p < 0.05) significant
From the text: The procedures used and results obtained are briefly described below.
The non-insulin dependent diabetic (NIDDM) syndrome can be typically characterizes by obesity, hyperglycemia, abnormal insulin secretion, hyperinsulinemia and insulin resistance.
In each test procedure, mice [Male or female ob/ob (C57 B1/6J) and their lean litermates (ob/+ or +/+, Jackson Laboratories) ages 2 to 5 months (10 to 65 g)] of a similar age were randomized according to body weight into 4 groups of 10 mice. The mice were housed 5 per cage and are maintained on normal rodent chow with water ad libitum. Mice received test compound daily by gavage (suspended in 0.5 ml of 0.5% methyl cellulose); dissolved in the drinking water; or admixed in the diet. The dose of compounds given ranges from 2.5 to 200 mg/kg body weight/day. The dose is calculated based on the fed weekly body weight and is expressed as active moiety. […] Control mice received vehicle only.
On the morning of Day 4, 7 or 14 two drops of blood (approximetly 50 ul) were collected into sodium fluoride containing tubes either from the tail vein or after decapitation. […] The plasma was isolated by centrifugation and the concentration of glucose is measured enzymatically on an Abbott V.P. Analyzer.
For each mouse, the percentage change in plasma glucose on Day 4, 7 or 14 is calculated relative to the mean plasma glucose of the vehicle treated mice. […]

IC50 [1]	SMILES	% Change Glucose from Vehicle [2]
39 nM	O=C(O)c1ccc(S(=O)(=O)Oc2ccc(-c3ccc(-c4c(Cc5ccccc5)oc5ccccc45)cc3)cc2)cc1O [Example 1, 4-[4'-(2-Benzyl-benzofuran-3-yl)-biphenyl-4-yloxysulfonyl]-2-hydroxy-benzoic acid]	–
26 nM	O=C(O)c1cc(S(=O)(=O)Oc2ccc(-c3ccc(-c4c(Cc5ccccc5)oc5ccccc45)cc3)cc2)ccc1O [Example 2, 5-[4'-(2-Benzyl-benzofuran-3-yl)-biphenyl-4-yloxysulfonyl]-2-hydroxy-benzoic acid]	–
75 nM	O=C(O)c1ccc(S(=O)(=O)Oc2ccc(-c3ccc(-c4c(Cc5ccccc5)oc5ccccc45)cc3)cc2)cc1 [Example 3, 4-[4'-(2-Benzyl-benzofuran-3-yl)-biphenyl-4-yloxysulfonyl]-benzoic acid]	–
106 nM	O=C(O)c1cccc(S(=O)(=O)Oc2ccc(-c3ccc(-c4c(Cc5ccccc5)oc5ccccc45)cc3)cc2)c1 [Example 4, 3-[4'-(2-Benzyl-benzofuran-3-yl)-biphenyl-4-yloxysulfonyl]-benzoic acid]	–
354 nM	O=C(O)c1ccc(S(=O)(=O)Oc2ccc(-c3ccc(-c4coc5ccccc45)cc3)cc2)cc1O [Example 5]	–
34 nM	Cc1cc(-c2ccc(-c3c(Cc4ccccc4)oc4ccccc34)cc2)cc(C)c1OS(=O)(=O)c1ccc(C(=O)O)c(O)c1 [Example 6, 4-[4'-(2-Benzyl-benzofuran-3-yl)-3,5-dimethyl-biphenyl-4-yloxysulfonyl]-2-hydroxy-benzoic acid]	–
29 nM	O=C(O)c1ccc(S(=O)(=O)Oc2ccc(-c3ccc(-c4c(Cc5ccccc5)oc5ccccc45)cc3)cc2[N+](=O)[O-])cc1O [Example 7, 4-[4'-(2-Benzyl-benzofuran-3-yl)-3-nitro-biphenyl-4-yloxysulfonyl]-2-hydroxy-benzoic acid]	–
178 nM	O=C(O)c1ccc(S(=O)(=O)Oc2ccc(-c3ccc(-c4c(C(=O)c5ccccc5)oc5ccccc45)cc3)cc2[N+](=O)[O-])cc1O [Example 8, 4-[4'-(2-Benzoyl-benzofuran-3-yl)-3-nitro-biphenyl-4-yloxysulfonyl]-2-hydroxy-benzoic acid]	–
40 nM	O=C(O)c1ccc(S(=O)(=O)Oc2ccc(-c3ccc(-c4c(C(=O)c5ccccc5)oc5ccccc45)cc3)cc2C2CCCC2)cc1O [Example 9, 4-[4'-(2-Benzoyl-benzofuran-3-yl)-3-cyclopentyl-biphenyl-4-yloxysulfonyl]-2-hydroxy-benzoic acid]	–
32 nM	Cc1sc(Cc2ccccc2)c(-c2ccc(-c3ccc(OS(=O)(=O)c4ccc(C(=O)O)c(O)c4)cc3)cc2)c1C [Example 10, 4-[4'-(2-Benzyl-4,5-dimethyl-thiophen-3-yl)-biphenyl-4-yloxysulfonyl]-2-hydroxy-benzoic acid]	–
28 nM	O=C(O)c1ccc(S(=O)(=O)Oc2ccc(-c3ccc(-c4c(Cc5ccccc5)sc5ccccc45)cc3)cc2)cc1O [Example 11, 4-[4'-(2-Benzyl-benzo[b]thiophen-3-yl)-biphenyl-4-yloxysulfonyl]-2-hydroxy-benzoic acid]	–
24 nM	O=C(O)c1ccc(S(=O)(=O)Oc2ccc(-c3ccc(-c4c(Cc5ccccc5)sc5ccccc45)cc3)cc2Br)cc1O [Example 12, 4-[4'-(2-Benzyl-benzo[b]thiophen-3-yl)-3-bromo-biphenyl-4-yloxysulfonyl]-2-hydroxy-benzoic acid]	–
30 nM	O=C(O)c1ccc(S(=O)(=O)Oc2c(Br)cc(-c3ccc(-c4c(Cc5ccccc5)sc5ccccc45)cc3)cc2Br)cc1O [Example 13, 4-[4'-(2-Benzyl-benzo[b]thiophen-3-yl)-3,5-dibromo-biphenyl-4-yloxysulfonyl]-2-hydroxy-benzoic acid]	-24.6^a %
